Measurements reported in ChEMBL document CHEMBL4118122, “Identification and biological evaluation of thiazole-based inverse agonists of RORγt” (Bioorg Med Chem Lett, 2018).

Key:
[1] = molecular target: 5-hydroxytryptamine receptor 2B (Homo sapiens, UniProt P41595); assay: Displacement of [125I]+/-DOI from human recombinant 5-HT2B receptor at 1 uM after 60 mins by scintillation counting analysis relative to control
Cytochrome P450 2C9 = Cytochrome P450 2C9 (Homo sapiens, UniProt P11712); assay: Inhibition of CYP2C9 (unknown origin); assay type: ADME
[2] = Displacement of [3H]D 888 from rat brain L-type calcium channel verapamil binding site after 120 mins by scintillation counting analysis
[3] = molecular target: Adenosine receptor A3 (Homo sapiens) (UniProt P0DMS8); assay: Displacement of [125I]AB-MECA from human recombinant adenosine A3 receptor at 1 uM after 120 mins by scintillation counting analysis relative to control
PXR (NR1I2) = molecular target: T1, PXR (NR1I2) (Homo sapiens, UniProt O75469); assay: […] at PXR LBD (unknown origin) expressed in HEK293 cells […] at 1 uM after 16 hrs by luciferase reporter gene assay relative to rifampicin; assay type: ADME, cell-based; settings: HEK293 cells expressing PXR LBD, read-out: Efficacy
T1 sequence (O75469 whole entry): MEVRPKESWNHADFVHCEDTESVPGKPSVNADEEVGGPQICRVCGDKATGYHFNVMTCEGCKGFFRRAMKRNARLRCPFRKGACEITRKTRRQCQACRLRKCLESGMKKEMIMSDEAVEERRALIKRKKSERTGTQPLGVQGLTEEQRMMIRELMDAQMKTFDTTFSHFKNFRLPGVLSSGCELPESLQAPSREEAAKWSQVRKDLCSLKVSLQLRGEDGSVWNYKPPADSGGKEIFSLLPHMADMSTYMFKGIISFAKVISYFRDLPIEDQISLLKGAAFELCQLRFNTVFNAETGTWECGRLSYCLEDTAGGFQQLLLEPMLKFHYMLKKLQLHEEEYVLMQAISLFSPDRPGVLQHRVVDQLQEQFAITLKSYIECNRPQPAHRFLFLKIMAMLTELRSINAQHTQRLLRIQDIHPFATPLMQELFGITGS

[4] = molecular target: 5-hydroxytryptamine receptor 7 (Homo sapiens, UniProt P34969); assay: Displacement of [3H]LSD from human recombinant 5-HT7 receptor after 120 mins by scintillation counting analysis
[5] = molecular target: Sodium-dependent noradrenaline transporter (Homo sapiens, UniProt P23975); assay: Displacement of [3H]nisoxetine from recombinant human norepinephrine transporter at 10 uM after 120 mins by scintillation counting analysis relative to control
[6] = molecular target: Neuromedin-K receptor (Homo sapiens) (UniProt P29371); assay: Displacement of [3H]SR 142801 from human recombinant NK3 receptor at 1 uM after 120 mins by scintillation counting analysis relative to control
[7] = molecular target: Neuropeptide Y receptor type 2 (Homo sapiens) (UniProt P49146); assay: Displacement of [125I]peptide YY from human Y2 receptor at 1 uM after 120 mins by scintillation counting analysis relative to control
Rattus norvegicus [8] = organism: Rattus norvegicus; assay: Displacement of [3H]batrachotoxinin from rat brain voltage gated sodium ion channel site 2 at 1 uM after 60 mins by scintillation counting analysis relative to control
Melanocortin receptor 4 = Melanocortin receptor 4 (Homo sapiens, UniProt P32245); assay: Displacement of [125I]NDP-alpha -MSH from human recombinant MC4 receptor after 120 mins by scintillation counting analysis
Rattus norvegicus [9] = organism: Rattus norvegicus; assay: Binding affinity to rat GABA receptor at 10 uM after 60 mins by radioligand binding assay relative to control
[10] = Displacement of [3H]batrachotoxinin from rat brain voltage gated sodium ion channel site 2 after 60 mins by scintillation counting analysis
[11] = molecular target: Muscarinic acetylcholine receptor M3 (Homo sapiens, UniProt P20309); assay: Displacement of [3H]4-DAMP from human recombinant M3 receptor at 1 uM after 60 mins by scintillation counting analysis relative to control
[12] = molecular target: Serine/threonine-protein kinase Chk2 (Homo sapiens) (UniProt O96017); assay: Inhibition of recombinant full length His-tagged human CHK2 expressed in baculovirus expression system at 10 uM in presence of ATP relative to control
[13] = molecular target: Neuromedin-K receptor (Homo sapiens) (UniProt P29371); assay: Displacement of [3H]SR 142801 from human recombinant NK3 receptor at 10 uM after 120 mins by scintillation counting analysis relative to control
[14] = molecular target: Mitogen-activated protein kinase 3 (Homo sapiens) (UniProt P27361); assay: Inhibition of recombinant full length GST-tagged human ERK1 expressed in Escherichia coli at 10 uM in presence of ATP relative to control
[15] = molecular target: T2, Nuclear receptor ROR-gamma (Homo sapiens, UniProt P51449); assay: Inverse agonist activity at human GAL4 DBD-fused RORgammat LBD (237 to 497 residues) expressed in HEK293T cells assessed as reduction in ROR mediated transcriptional activity after 24 hrs by dual glo luciferase reporter gene assay; assay type: cell-based
T2 sequence (P51449 whole entry): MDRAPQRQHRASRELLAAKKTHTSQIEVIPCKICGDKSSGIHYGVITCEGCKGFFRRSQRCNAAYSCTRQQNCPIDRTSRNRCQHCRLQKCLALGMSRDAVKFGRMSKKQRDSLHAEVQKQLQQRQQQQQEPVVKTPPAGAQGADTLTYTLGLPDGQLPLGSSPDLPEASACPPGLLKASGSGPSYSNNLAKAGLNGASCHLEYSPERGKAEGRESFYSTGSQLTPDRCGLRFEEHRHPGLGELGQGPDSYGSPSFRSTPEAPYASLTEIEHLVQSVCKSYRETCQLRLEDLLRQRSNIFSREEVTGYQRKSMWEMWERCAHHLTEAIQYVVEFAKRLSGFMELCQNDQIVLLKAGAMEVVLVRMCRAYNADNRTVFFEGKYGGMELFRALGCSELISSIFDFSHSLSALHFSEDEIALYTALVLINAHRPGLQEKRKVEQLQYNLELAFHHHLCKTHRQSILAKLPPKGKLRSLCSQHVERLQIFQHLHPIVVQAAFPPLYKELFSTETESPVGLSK

[16] = molecular target: Rho-associated protein kinase 1 (Homo sapiens) (UniProt Q13464); assay: Inhibition of recombinant N-terminal GST-tagged human ROCK1 catalytic domain (1 to 535 residues) expressed in baculovirus expression system at 10 uM in presence of ATP relative to control
[17] = molecular target: NT-3 growth factor receptor (Homo sapiens) (UniProt Q16288); assay: Inhibition of recombinant full length His-tagged human NTRK3 (510 to 825 residues) cytoplasmic domain expressed in baculovirus expression system at 10 uM in presence of ATP relative to control
[18] = molecular target: Muscarinic acetylcholine receptor M2 (Homo sapiens, UniProt P08172); assay: Displacement of [3H]AF-DX 384 from human recombinant M2 receptor after 60 mins by scintillation counting analysis
[19] = AUC (0 to infinity) in Sprague-Dawley rat at 5 mg/kg, po; assay type: ADME, organism-based; design: dose 5 mg/kg, route oral, time infinity; settings: in vivo
[20] = molecular target: Substance-K receptor (Homo sapiens) (UniProt P21452); assay: Displacement of [125I]NKA from human recombinant NK2 receptor at 1 uM after 60 mins by scintillation counting analysis relative to control
[21] = Oral bioavailability in Sprague-Dawley rat at 5 mg/kg; assay type: ADME, organism-based; settings: in vivo

Chain of Neuromedin-K receptor (Homo sapiens) (P29371 whole entry): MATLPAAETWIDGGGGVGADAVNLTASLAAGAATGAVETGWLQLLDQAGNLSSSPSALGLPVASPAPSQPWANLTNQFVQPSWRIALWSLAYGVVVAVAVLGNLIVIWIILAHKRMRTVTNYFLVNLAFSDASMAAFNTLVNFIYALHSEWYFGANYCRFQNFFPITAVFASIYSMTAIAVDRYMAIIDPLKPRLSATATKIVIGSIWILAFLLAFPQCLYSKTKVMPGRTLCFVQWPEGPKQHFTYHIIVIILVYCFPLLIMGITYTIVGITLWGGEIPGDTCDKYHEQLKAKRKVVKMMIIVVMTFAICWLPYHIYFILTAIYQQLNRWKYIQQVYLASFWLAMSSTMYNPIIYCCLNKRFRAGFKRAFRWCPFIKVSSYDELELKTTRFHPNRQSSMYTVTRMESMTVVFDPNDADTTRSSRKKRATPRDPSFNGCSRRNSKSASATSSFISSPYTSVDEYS
Chain of Neuropeptide Y receptor type 2 (Homo sapiens) (P49146 whole entry): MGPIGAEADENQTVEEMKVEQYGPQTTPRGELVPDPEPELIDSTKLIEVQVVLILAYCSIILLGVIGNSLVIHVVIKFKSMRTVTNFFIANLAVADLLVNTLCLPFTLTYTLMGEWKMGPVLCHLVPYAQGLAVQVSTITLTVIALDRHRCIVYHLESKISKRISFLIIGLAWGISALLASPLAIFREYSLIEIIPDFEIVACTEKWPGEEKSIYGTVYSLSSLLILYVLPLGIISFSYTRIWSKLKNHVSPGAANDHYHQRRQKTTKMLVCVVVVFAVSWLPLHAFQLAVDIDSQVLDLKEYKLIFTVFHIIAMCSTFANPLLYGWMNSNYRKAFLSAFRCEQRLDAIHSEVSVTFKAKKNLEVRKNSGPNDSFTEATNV
Chain of 5-hydroxytryptamine receptor 7 (P34969 whole entry): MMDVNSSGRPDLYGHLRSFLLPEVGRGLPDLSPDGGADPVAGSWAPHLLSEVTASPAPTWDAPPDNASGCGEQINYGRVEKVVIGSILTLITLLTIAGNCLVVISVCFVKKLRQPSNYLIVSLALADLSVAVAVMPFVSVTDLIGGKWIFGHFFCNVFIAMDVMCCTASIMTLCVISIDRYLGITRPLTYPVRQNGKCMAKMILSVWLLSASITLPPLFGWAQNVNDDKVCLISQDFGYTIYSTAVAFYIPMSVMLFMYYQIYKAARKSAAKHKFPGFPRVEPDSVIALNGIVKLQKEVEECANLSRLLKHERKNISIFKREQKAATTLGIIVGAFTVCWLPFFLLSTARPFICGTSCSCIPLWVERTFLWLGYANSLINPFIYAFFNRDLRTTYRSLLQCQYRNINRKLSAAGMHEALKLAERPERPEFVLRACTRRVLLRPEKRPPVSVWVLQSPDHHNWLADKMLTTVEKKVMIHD
Chain of Mitogen-activated protein kinase 3 (Homo sapiens) (P27361 whole entry, the tested form may be a part): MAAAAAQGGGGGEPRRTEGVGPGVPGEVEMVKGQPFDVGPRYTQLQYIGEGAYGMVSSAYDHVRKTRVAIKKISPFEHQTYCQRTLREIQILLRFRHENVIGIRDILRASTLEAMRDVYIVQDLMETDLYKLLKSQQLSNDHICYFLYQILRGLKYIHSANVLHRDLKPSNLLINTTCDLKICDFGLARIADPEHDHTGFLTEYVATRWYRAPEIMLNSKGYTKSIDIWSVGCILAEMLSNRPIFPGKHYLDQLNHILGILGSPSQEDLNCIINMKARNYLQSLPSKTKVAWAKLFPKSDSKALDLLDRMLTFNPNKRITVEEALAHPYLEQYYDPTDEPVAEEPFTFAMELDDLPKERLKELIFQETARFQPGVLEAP
Chain of Sodium-dependent noradrenaline transporter (P23975 whole entry): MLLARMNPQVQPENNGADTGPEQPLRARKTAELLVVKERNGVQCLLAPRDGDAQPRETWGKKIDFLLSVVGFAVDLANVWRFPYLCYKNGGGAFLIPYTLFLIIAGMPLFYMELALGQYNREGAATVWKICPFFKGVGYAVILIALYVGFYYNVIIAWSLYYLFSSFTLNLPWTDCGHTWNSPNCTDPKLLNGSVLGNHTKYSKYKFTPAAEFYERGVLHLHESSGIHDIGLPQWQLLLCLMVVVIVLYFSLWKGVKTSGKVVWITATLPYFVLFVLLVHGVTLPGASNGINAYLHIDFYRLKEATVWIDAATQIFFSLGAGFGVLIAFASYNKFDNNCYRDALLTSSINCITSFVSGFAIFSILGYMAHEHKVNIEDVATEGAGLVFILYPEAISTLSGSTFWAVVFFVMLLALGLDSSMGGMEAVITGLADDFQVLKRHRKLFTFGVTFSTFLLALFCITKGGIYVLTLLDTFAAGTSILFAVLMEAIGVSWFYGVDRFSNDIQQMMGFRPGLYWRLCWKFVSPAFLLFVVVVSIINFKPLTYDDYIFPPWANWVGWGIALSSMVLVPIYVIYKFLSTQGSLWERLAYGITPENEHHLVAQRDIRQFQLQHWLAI
Chain of NT-3 growth factor receptor (Homo sapiens) (Q16288 32-839 limits assumed): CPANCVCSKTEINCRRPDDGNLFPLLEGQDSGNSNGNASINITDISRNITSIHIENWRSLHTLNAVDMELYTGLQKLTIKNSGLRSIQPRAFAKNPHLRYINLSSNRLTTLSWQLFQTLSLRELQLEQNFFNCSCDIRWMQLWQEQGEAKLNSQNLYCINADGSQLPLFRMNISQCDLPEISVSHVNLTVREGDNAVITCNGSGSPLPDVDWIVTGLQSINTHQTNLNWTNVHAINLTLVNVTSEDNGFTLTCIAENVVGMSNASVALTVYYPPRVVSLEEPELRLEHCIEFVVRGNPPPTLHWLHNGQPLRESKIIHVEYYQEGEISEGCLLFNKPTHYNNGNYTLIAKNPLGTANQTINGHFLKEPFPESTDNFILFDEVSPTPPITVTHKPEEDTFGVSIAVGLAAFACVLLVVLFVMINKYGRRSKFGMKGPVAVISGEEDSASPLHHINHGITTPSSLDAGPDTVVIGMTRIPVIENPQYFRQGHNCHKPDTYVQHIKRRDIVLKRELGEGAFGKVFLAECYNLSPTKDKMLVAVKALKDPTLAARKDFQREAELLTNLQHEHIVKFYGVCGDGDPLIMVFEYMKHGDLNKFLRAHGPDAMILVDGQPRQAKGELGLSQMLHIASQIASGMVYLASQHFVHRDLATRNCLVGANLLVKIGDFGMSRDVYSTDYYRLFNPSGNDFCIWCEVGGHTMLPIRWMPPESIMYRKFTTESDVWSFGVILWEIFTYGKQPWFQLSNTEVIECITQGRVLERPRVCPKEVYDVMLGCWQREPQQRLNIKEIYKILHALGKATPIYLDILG
Chain of Melanocortin receptor 4 (P32245 whole entry): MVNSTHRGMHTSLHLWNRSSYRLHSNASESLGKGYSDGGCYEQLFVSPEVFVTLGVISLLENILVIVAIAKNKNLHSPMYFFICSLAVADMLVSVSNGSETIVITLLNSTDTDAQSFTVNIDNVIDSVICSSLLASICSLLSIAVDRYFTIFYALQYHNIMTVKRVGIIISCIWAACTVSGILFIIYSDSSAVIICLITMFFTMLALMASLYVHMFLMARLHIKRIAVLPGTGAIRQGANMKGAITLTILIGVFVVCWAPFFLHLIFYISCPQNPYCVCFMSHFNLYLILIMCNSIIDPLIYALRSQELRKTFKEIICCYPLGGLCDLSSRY
Chain of Serine/threonine-protein kinase Chk2 (Homo sapiens) (O96017 whole entry): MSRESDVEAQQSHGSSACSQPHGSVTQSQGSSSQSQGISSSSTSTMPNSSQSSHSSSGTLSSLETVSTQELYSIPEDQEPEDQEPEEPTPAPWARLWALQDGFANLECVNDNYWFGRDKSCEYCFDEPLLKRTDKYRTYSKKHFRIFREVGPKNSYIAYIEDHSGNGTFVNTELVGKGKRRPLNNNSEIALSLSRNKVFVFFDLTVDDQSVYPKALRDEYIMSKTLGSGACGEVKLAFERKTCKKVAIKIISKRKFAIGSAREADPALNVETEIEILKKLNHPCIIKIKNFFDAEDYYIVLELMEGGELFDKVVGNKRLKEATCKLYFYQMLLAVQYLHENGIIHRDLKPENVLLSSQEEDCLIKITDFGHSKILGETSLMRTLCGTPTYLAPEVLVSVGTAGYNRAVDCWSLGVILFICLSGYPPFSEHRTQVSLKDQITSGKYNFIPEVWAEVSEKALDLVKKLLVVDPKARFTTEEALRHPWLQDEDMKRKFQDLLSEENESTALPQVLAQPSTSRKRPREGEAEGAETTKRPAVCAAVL
Chain of Substance-K receptor (Homo sapiens) (P21452 whole entry): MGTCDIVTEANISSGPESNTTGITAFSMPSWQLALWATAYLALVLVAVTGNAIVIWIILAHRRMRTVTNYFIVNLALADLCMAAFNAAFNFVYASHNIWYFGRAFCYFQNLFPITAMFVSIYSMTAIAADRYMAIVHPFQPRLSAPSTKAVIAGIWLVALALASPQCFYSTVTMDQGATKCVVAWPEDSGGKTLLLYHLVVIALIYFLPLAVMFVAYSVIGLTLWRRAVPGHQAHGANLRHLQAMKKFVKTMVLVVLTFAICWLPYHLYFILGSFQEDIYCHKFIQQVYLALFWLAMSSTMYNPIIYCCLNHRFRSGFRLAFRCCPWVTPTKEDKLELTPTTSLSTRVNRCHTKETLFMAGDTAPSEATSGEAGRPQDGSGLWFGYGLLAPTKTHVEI
Chain of Muscarinic acetylcholine receptor M2 (P08172 whole entry): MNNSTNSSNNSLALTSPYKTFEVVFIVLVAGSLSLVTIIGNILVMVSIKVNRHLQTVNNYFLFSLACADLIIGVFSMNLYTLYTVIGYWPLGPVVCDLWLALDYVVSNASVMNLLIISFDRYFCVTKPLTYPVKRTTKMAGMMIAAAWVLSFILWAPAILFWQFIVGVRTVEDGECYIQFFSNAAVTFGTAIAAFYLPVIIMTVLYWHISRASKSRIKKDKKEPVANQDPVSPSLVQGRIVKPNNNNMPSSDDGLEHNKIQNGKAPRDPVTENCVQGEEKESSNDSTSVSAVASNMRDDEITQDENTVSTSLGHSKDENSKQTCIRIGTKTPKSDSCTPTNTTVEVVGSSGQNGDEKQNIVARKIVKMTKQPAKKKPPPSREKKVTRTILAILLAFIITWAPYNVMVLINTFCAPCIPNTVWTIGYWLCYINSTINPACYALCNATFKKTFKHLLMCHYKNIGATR

## CC(C)(C)NS(=O)(=O)c1ccc(-c2sc(C(=O)N[C@H]3C[C@H](C(=O)O)C3)nc2CC2CCCCC2)c2ccccc12
[1]
  inhibition: < 10%
Cytochrome P450 2C9
  INH: 9.9 µM
[2]
  IC50: 51 nM
[3]
  inhibition: 24%
PXR (NR1I2)
  Emax at 16 h, 1 µM: 141%
[4]
  IC50: 0.39 nM
[5]
  inhibition: 27%
[6]
  inhibition: < 10%
[7]
  inhibition: < 10%
Rattus norvegicus [8]
  inhibition: < 10%
Melanocortin receptor 4
  IC50: 0.21 nM
Rattus norvegicus [9]
  inhibition: 14%
[10]
  IC50: 6420 nM
[11]
  inhibition: < 10%
[12]
  inhibition: -1%
[13]
  inhibition: 32%
[14]
  inhibition: -7%
[15]
  IC50: 0.94 nM
[16]
  inhibition: -10%
[17]
  inhibition: -10%
[18]
  IC50: 48 nM
[19]
  AUC(0-inf): 328 ng·h/mL
[20]
  inhibition: < 10%
[21]
  bioavailability: 20%
